Measurements as given in patent publication US7361662B2, “Pyridopyrimidinone compounds, method for production thereof and medicaments comprising the same” (Les Laboratoires Servier, priority 2002, dated 2008).

System: obese ob/ob mouse (model of obesity-associated insulin resistance)
Assay: Hypolipaemic activity in the obese ob/ob mouse
Format: in vivo
Experimental: The products of the invention were tested in vivo in the obese ob/ob mouse, used as a model of obesity-associated insulin resistance.

Row | SMILES | reduction of triglycerides (250 mg/kg per os) | reduction of triglycerides (125 mg/kg per os)
1 | CN(C)C(=N)N=C(N)N [metformin] | the same reduction is obtained | 
2 | CCCN(CCC)c1nc2c(N3CCCCCC3)nc(N3CCOCC3)cc2c(=O)[nH]1 [Example 6, 8-(1-Azepanyl)-2-(dipropylamino)-6-(4-morpholinyl)pyrido[3,4-d]pyrimidin-4(3H)-one] |  | significantly reduces the triglycerides
